{
  "source": "paper PMC8803746",
  "about": "“Two experts and a newbie: [^18F]PARPi vs [^18F]FTT vs [^18F]FPyPARP—a comparison of PARP imaging agents” (European Journal of Nuclear Medicine and Molecular Imaging, 2021)",
  "key": {"[1]": {"set-up": "method as in Lynparza monograph, AstraZeneca", "conditions": "reported value; ref Lynparza monograph, AstraZeneca; cited from earlier work"}, "[2]": {"tested_on": "ABCB1 (encoding MDR1 P-glycoprotein)", "set-up": "method as in PMID 24700236", "conditions": "cited from earlier work"}, "[3]": {"assay": "Experimental logP and logD determination (1-octanol/water or PBS, gamma counter)", "type": "physicochemical", "conditions": "experimentally determined; for logD: 1-octanol/PBS; for logP: 1-octanol/water", "protocol": "One microliter radiotracer solution (0.4 MBq) was added to a mixture of 500 µl water or PBS and 500 µl 1-octanol. After thorough shaking, the suspension was shortly centrifuged for phase separation, samples were drawn from each phase, and radioactivity concentration was measured in a gamma counter (WIZARD2, PerkinElmer, Waltham, MA, USA)."}, "[4]": {"tested_on": "HCC1937 cells", "assay": "In vitro radiotracer uptake, acid wash", "type": "cell-based, human", "conditions": "glycine-HCl in PBS 50 mM pH 2.8 vs medium", "protocol": "For the acid wash, cells were distributed in 96-well filter plates as described before and incubated with the radiotracer solution for 30 min at 37 °C. After an initial wash with 100 µl medium, cells were either washed twice (1: 100 µl, 2: 200 µl) with medium or with glycine–HCl in PBS (50 mM, pH 2.8) followed by a final wash with 200 µl medium and measured in a gamma counter."}, "[5]": {"tested_on": "HCC1937 xenografts", "assay": "PET/MR imaging and ex vivo biodistribution in xenograft-bearing mice", "set-up": "species or system NOD.CB17-Prkdc^scid/J mice", "conditions": "for Xenograft uptake (TACs from dynamic PET): 1-h dynamic PET; for tumor-to-muscle ratio (TMR) / tumor-to-blood ratio (TBR): ex vivo biodistribution; for tumor-to-muscle ratio (TMR) / tumor-to-blood ratio (TBR) / liver-to-kidney ratio (LKR): mean value; for Renal clearance / bladder uptake in PET images: i.v., dynamic PET, minutes 50-60", "protocol": "(§1) All animal experiments were performed according to the German animal welfare act and approved by the local authorities (Regierungspräsidium Tübingen, R3/18). Animals were housed in individually ventilated cages (IVCs, 5 mice per cage) with bedding and enrichment, and food and water was provided ad libitum. Animals were kept under isoflurane anesthetic (1.5% in pure oxygen, 1.5 l/min) during the experiments. In 1:1 ice-cold Matrigel (Thermo Scientific)/PBS, 1 × 10^7 cells were injected subcutaneously in the right shoulder area of 7-week-old female NOD.CB17-Prkdc^scid/J mice (n = 10 per tracer). After the xenografts reached a suitable size (302 ± 152 mm^3), mice were injected with 12.45 ± 0.87 MBq, 12.68 ± 0.39 MBq, and 12.94 ± 0.45 MBq, respectively, of [^18F]PARPi, [^18F]FPyPARP, and [^18F]FTT and subjected to 1-h dynamic (n = 7 per tracer) or 10-min static (n = 3 per tracer, 1-h resting uptake) PET imaging (Inveon D-PET, Siemens, Knoxville, TN, USA) with subsequent magnetic resonance (MR) anatomical scans using a 7-T Biospec 70/30 USR (Clinscan, Bruker Biospin MRI GmbH) and a T2-weighted spin echo sequence. Five mice of each dynamically acquired group underwent a second, 10-min static PET scan 2-h post-injection (p.i.). Mice were sacrificed by cervical dislocation, the collected organs were weighed, and the tissue uptake was determined by gamma-counting (WIZARD2). Liver and kidney tissue was frozen in Tissue-Tek (Labtech, East Sussex, Britain) and 20-µm slices were prepared for autoradiography. A storage phosphor screen (Molecular Dynamics, Caesarea, Israel) was exposed to the sections for 18 h and scanned at a resolution of 100 µm/px with a STORM phosphor imager (Molecular Dynamics). PET image reconstruction and correlation with MR images was performed with Inveon Acquisition Workplace and Inveon Research Workplace, respectively, using a user-defined dynamic framing and an ordered subset expectation maximization (OSEM3D) algorithm. Regions of interest (ROIs) were drawn according to the acquired MR images and co-registered with the PET data to obtain time-activity curves (TACs).\nStatistical analyses are represented as mean values ± standard deviation. Analyses were performed using GraphPad Prism 9 and non-parametric t tests (comparison of two groups) and one-way ANOVA (comparison of more than two groups). Blood half-life was calculated using a two-phase decay fit in GraphPad Prism 8. p values < 0.05 were considered statistically significant according to the software (*p < 0.05, **p < 0.01, ***p < 0.001, ****p < 0.0001)."}, "[6]": {"assay": "Blood half-life, two-phase decay fit", "type": "in vivo, NOD.CB17-Prkdc^scid/J mice", "conditions": "calculated with two-phase decay fit", "protocol": "as §1, with “PET image reconstruction and correlation with MR images was performed with Inveon Acquisition Workplace and Inveon Research Workplace, respectively, using a user-defined dynamic framing and an ordered subset expectation maximization (OSEM3D) algorithm. Regions of interest (ROIs) were drawn according to the acquired MR images and co-registered with the PET data to obtain time-activity curves (TACs).” left out\nStatistical analyses are represented as mean values ± standard deviation. […] Blood half-life was calculated using a two-phase decay fit in GraphPad Prism 8. p values < 0.05 were considered statistically significant according to the software (*p < 0.05, **p < 0.01, ***p < 0.001, ****p < 0.0001)."}, "[7]": {"set-up": "method as in PMID 32245901", "conditions": "cited from earlier work"}, "[8]": {"set-up": "method as in PMID 30389822", "conditions": "cited from earlier work"}, "[9]": {"set-up": "method as in PMID 30389822", "conditions": "cited from earlier work", "remark": "listed apart in the source"}, "[10]": {"assay": "Serum stability analysis in mouse serum", "type": "in vitro ADME", "conditions": "C57BL/6 J mouse serum, 37 °C, over 240 min, HPLC", "protocol": "(§2) Serum stability was assessed by mixing [^18F]FPyPARP solution 1:1 with C57BL/6 J mouse or human (blood type AB + , Sigma-Aldrich, Steinheim, Germany) serum. After 0-, 30-, 60-, 120-, and 240-min incubation at 37 °C, samples were drawn and the proteins were precipitated by adding ice-cold MeCN to a final concentration of 50%. The supernatant after centrifugation (12,100 × g, 90 s) was analyzed by HPLC as described for radiotracer quality control."}, "[11]": {"assay": "Serum stability analysis in human serum", "type": "in vitro ADME", "conditions": "37 °C, over 240 min, HPLC", "protocol": "as §2"}},
  "note": "Where “and” joins values, the source holds several entries; their conditions need not be identical. Identical values can stand only once. Like-named read-outs stand apart in the source and are kept apart here.",
  "data": [
    {"smiles": "O=C(c1cc(Cc2n[nH]c(=O)c3ccccc23)ccc1F)N1CCN(C(=O)C2CC2)CC1", "note": "[olaparib]", "values": [
      {"measurement": "logD", "setting": "[1]", "value": 1.49},
      {"measurement": "Efflux transporter substrate", "setting": "[2]", "value": "efflux transporter of olaparib"}
    ]},
    {"smiles": "O=C(c1ccc([18F])cc1)N1CCN(C(=O)c2cc(Cc3n[nH]c(=O)c4ccccc34)ccc2F)CC1", "note": "[[^18F]PARPi]", "values": [
      {"measurement": "logD", "setting": "[3]", "value": 2.09},
      {"measurement": "logP", "setting": "[3]", "value": 2.09},
      {"measurement": "Radiotracer uptake after acidic wash compared to medium wash", "setting": "[4]", "value": "significantly higher uptake"},
      {"measurement": "Xenograft uptake (TACs from dynamic PET)", "setting": "[5]", "value": "within the same range"},
      {"measurement": "tumor-to-muscle ratio (TMR)", "setting": "[5]; 1.5 h p.i.", "value": 5.3},
      {"measurement": "tumor-to-blood ratio (TBR)", "setting": "[5]; 2.5 h p.i.", "value": "3.41 ± 0.83"},
      {"measurement": "liver-to-kidney ratio (LKR)", "setting": "[5]; 2.5 h p.i.", "value": 1.37},
      {"measurement": "Renal clearance / bladder uptake in PET images", "setting": "[5]", "value": "some of the animals showed renal excretion"},
      {"measurement": "Blood half-life", "setting": "[6]", "value": "3 ± 0.7", "unit": "min"},
      {"measurement": "Time of first appearance of a radiometabolite", "setting": "[7]; first-in-human clinical studies", "value": 25, "unit": "min"},
      {"measurement": "Renal clearance", "setting": "[7]; in humans", "value": 30, "unit": "%"}
    ]},
    {"smiles": "O=C1NCCn2c(-c3ccc(OCC[18F])cc3)nc3cccc1c32", "note": "[[^18F]FTT]", "values": [
      {"measurement": "logD", "setting": "[3]", "value": 1.94},
      {"measurement": "logP", "setting": "[3]", "value": 1.1},
      {"measurement": "Radiotracer uptake after acidic wash compared to medium wash", "setting": "[4]", "value": "No difference"},
      {"measurement": "Xenograft uptake (TACs from dynamic PET)", "setting": "[5]", "value": "higher overall xenograft uptake"},
      {"measurement": "tumor-to-liver ratio (TLR)", "setting": "[5]; 1.5 h and 2.5 h p.i.", "value": "significantly higher at both time points"},
      {"measurement": "tumor-to-blood ratio (TBR)", "setting": "[5]; 2.5 h p.i.", "value": "2.46 ± 0.35 and 2.46"},
      {"measurement": "tumor-to-muscle ratio (TMR)", "setting": "[5]; 2.5 h p.i.", "value": 3.42},
      {"measurement": "Renal clearance / bladder uptake in PET images", "setting": "[5]", "value": "no noticeable renal clearance"},
      {"measurement": "Blood half-life", "setting": "[6]", "value": "2.1 ± 0.5", "unit": "min"}
    ]},
    {"smiles": "O=C(c1cc(Cc2n[nH]c(=O)c3ccccc23)ccc1[18F])N1CCN(C(=O)C2CC2)CC1", "note": "[[^18F]olaparib]", "values": [
      {"measurement": "calculated logP", "setting": "[8]", "value": 2.02},
      {"measurement": "Clearance route", "setting": "[9]", "value": "only shows hepatobiliary clearance"}
    ]},
    {"smiles": "O=C(c1ccc(F)nc1)N1CCN(C(=O)c2cc(Cc3n[nH]c(=O)c4ccccc34)ccc2F)CC1", "note": "[[^18F]FPyPARP, 4-(4-Fluoro-3-(4-(6-fluoronicotinoyl)piperazine-1-carbonyl)benzyl)phthalazine-1(2H)-one]", "values": [
      {"measurement": "logD", "setting": "[3]", "value": 1.16},
      {"measurement": "logP", "setting": "[3]", "value": 1.16},
      {"measurement": "Serum stability", "setting": "[10]", "value": "no significant radiometabolites and good radiotracer stability over 240 min"},
      {"measurement": "Serum stability", "setting": "[11]", "value": "no significant radiometabolites and good radiotracer stability over 240 min"},
      {"measurement": "Radiotracer uptake after acidic wash compared to medium wash", "setting": "[4]", "value": "No difference"},
      {"measurement": "Xenograft uptake (TACs from dynamic PET)", "setting": "[5]", "value": "within the same range"},
      {"measurement": "tumor-to-muscle ratio (TMR)", "setting": "[5]; 1.5 h p.i.", "value": 1.99},
      {"measurement": "Change of liver-to-kidney ratio between the 1.5 and 2.5 h time points", "setting": "[5]; 1.5 h vs 2.5 h p.i.", "value": "decreased"},
      {"measurement": "tumor-to-blood ratio (TBR)", "setting": "[5]; 2.5 h p.i.", "value": "3.99 ± 0.99 and 3.99"},
      {"measurement": "tumor-to-muscle ratio (TMR)", "setting": "[5]; 2.5 h p.i.", "value": 2.46},
      {"measurement": "liver-to-kidney ratio (LKR)", "setting": "[5]; 2.5 h p.i.", "value": 0.60},
      {"measurement": "Liver uptake (TACs)", "setting": "[5]; early time points, in direct comparison to [^18F]PARPi", "value": "lower uptake values"},
      {"measurement": "Renal clearance / bladder uptake in PET images", "setting": "[5]", "value": "all animals exhibiting strong radioactive signal in the bladder"},
      {"measurement": "Blood half-life", "setting": "[6]", "value": "2.6 ± 1.4", "unit": "min"}
    ]}
  ]
}
